Laboratory results taken from US20140038967A1, “NOVEL USE FOR IMIDAZOTRIAZINONES” (ALGIAX PHARMACEUTICALS GMBH, priority 2011, published 2014).

Key:
[1] = test system: severe spinal cord contusion injury; experiment: Explorative rearing test after severe spinal cord contusion injury, intrathecal treatment; format: in vivo, Lewis rats; details: intrathecal 100 μM over 14 days
Description: (§1) Thirteen week-old female Lewis rats (Charles River, Sulzfeld Germany) were housed under a 12:12 h dark/light regime and allowed free access to water and food. After one week of habituation the animals underwent general anesthesia with a mixture of isoflurane and air (induction: 5% isoflurane, maintenance: 2.2% isofluorane). A T8 laminectomy was performed without rupturing the dura and a severe contusive SCI (25 gcm NYU/MASCIS II impactor) {Gruner, 1992 #3} was induced. Thereafter, the surgery continued with the procedure to position the silicon tube intrathecal catheter (7740, Alzet). Firstly, the catheter was filled with either the active or the vehicle solution. Secondly, another laminectomy was performed, again without rupturing the dura, at T11. At this position a small incision was made into the dura and the catheter was inserted at thoracic level 11 and pushed forward under lamina of T10-T9 to the lesion site at T8. The catheter was then cut at the appropriate length and connected to a filled osmotic minipump (Alzet, model 2002) which was placed subcutaneously. The overlying tissue was sutured, and a subcutaneous (s.c.) injection of 5 ml of Ringers Lactate was given. The different solutions (active or vehicle) were infused at a flow rate of 0.5 μl/h over a time period of 14 days. […]
When placed in a Plexiglas cylinder (18 cm diameter×35.0 cm height), animals spontaneously rear and contact the walls with their forepaws. Numbers, duration and types of rears were analyzed during the 3-min recorded observation period in the cylinder (Himes et al., 2006; Shumsky et al., 2003). […] The testing session was videotaped, and rearing behaviour was scored blindly at a later date. […]
Occasionally an animal progressed through several types of rears before touching down, in which case the time the animal spend in each rearing height was measured by counting the single video frames. Data were expressed as number of attempts (rears), attempt duration and the time each animal spend in the different rearing heights.

[2] = test system: severe spinal cord contusion injury; experiment: BBB open field locomotor rating scale after severe spinal cord contusion injury, intrathecal treatment; format: in vivo, Lewis rats
Description: Intrathecal treatment with a imidazotriazinone after severe spinal cord contusion injury in the rat.
as §1, with “T8.” for “T8. The catheter was then cut at the appropriate length and connected to a filled osmotic minipump (Alzet, model 2002) which was placed subcutaneously. The overlying tissue was sutured, and a subcutaneous (s.c.) injection of 5 ml of Ringers Lactate was given. The different solutions (active or vehicle) were infused at a flow rate of 0.5 μl/h over a time period of 14 days.”
(§2) The BBB Open Field Locomotor Rating Scale: • The BBB locomotor rating scale was used to assess general locomotor performance (Basso et al., 1995). The score was assessed before injury and at 1, 3, 5, 7, 14, 21, 35, 42, 49, 56 and 63 days post operation (dpo) by 2 blinded observers.

embryonic DRG explants = experiment: Axonal growth and Schwann cell expansion in embryonic DRG explants; format: cell-based, Wistar rat
Description: In vitro experiments with an imidazotriazinone to improve axonal growth and Schwann cell expansion in embryonic DRG explants of rats.
Outgrowth studies with 7-(4-tert-butylcyclohexyl)-5-ethyl-2-phenylimidazo[5,1-f][1,2,4]triazin-4(3H)-one or the vehicle were performed on embryonic neural tissue. DRGs of thoracic, lumbar, and sacral levels were prepared from Wistar rat embryos E18-20 and processed in ice cold 0.6% glucose in PBS. Harvested DRGs were freed from attaching nerve fibres, dissected, and transferred onto poly-D-lysine- and laminin-coated glass coverlips. To avoid cluster formation, a maximum of two DRG explants was transferred onto a single glass coverslip. Following an initial attachment phase, the pre-incubation medium was replaced by fully supplemented growth medium spiked with the test item (7-(4-tert-butylcyclohexyl)-5-ethyl-2-phenylimidazo[5,1-f][1,2,4]triazin-4(3H)-one groups 2 and 3) or vehicle (DMF, group 1) and incubated at 37° C./10% CO2 for additional 22 hours in vitro. Following 22 hours in vitro, the DRG explants were fluorescently labelled and axonal growth and Schwann cell expansion were quantitatively assessed.
The following experimental groups were included into the study: • Fully supplemented growth medium with 0.1% vehicle. • Fully supplemented growth medium with 0.1% vehicle and 7-(4-tert-butylcyclohexyl)-5-ethyl-2-phenylimidazo[5,1-f][1,2,4]triazin-4(3H)-one at a final concentration of 0.01 μM. • Fully supplemented growth medium with 0.1% vehicle and 7-(4-tert-butylcyclohexyl)-5-ethyl-2-phenylimidazo[5,1-f][1,2,4]triazin-4(3H)-one at a final concentration of 0.1 μM. • Fully supplemented growth medium with 0.1% vehicle and 7-(4-tert-butylcyclohexyl)-5-ethyl-2-phenylimidazo[5,1-f][1,2,4]triazin-4(3H)-one at a final concentration of 1 μM.

[3] = test system: severe spinal cord contusion injury; experiment: BBB open field locomotor rating scale after severe spinal cord contusion injury, oral treatment; format: in vivo, Lewis rats
Description: as §2
Oral Treatment with a Imidazotriazinone after Severe Spinal Cord Contusion Injury in the Rat.
Thirteen week-old female Lewis rats (Charles River, Sulzfeld Germany) were housed under a 12:12 h dark/light regime and allowed free access to water and food. After one week of habituation the animals underwent general anesthesia with a mixture of isoflurane and air (induction: 5% isoflurane, maintenance: 2.2% isofluorane). A Th10 laminectomy was performed without rupturing the dura and a severe contusive SCI (25 gcm NYU/MASCIS II impactor) (Gruner, 1992) was induced. After suturing muscle and skin, a subcutaneous (s.c.) injection of 5 ml of Ringers Lactate was given. Bladders were emptied manually 2 times a day until spontaneous voiding returned (usually within 1 week). The lesion severity was verified by the impact velocity and contusion depth of the impactor rod. Animals with an impact velocity error >5% were excluded from further analysis. After injury, individual rats were randomly assigned into a treatment group. The following groups were used: […]

[4] = compared to vehicle control animals (FIG. 3)
[5] = tested 0.01, 0.1 and 1 μM, 22 hours in vitro

With `CCc1nc(C2CCC(C(C)(C)C)CC2)n2nc(-c3ccccc3)[nH]c(=O)c12` (stereo not drawn) [7-(4-tert-butylcyclohexyl)-5-ethyl-2-phenylimidazo[5,1-f][1,2,4]triazin-4(3H)-one] the “duration of rearing attempts” value [1, 4] was “longer in time”, the “height reached by forepaws in rearing attempts” value [1, 4] was “reached much higher” and the “types of rears performed” value ([1]; vehicle animals only crouch or rear) was “able to perform standing and even reaching”. The “BBB locomotor rating scale, treatment effect over the entire time-period of the assessment” value ([2]; intrathecal 100 μM, 0.5 μl/h over 14 days, ANOVA-RM p=0.013 vs vehicle (FIG. 2)) was “significant effect”, the “functional recovery after severe spinal cord contusion (overall, example 2)” value ([2]; intrathecal treatment, rat) was “significantly improves functional recovery” and the “Schwann cell numbers compared to vehicle-treated cultures” value (embryonic DRG explants; 0.01-1 μM, 22 hours in vitro) was “increased nearly fourfold”. The “Schwann cell expansion (numbers of Schwann cells outside the DRG explant core)” value (embryonic DRG explants; 0.01-1 μM, 22 hours in vitro (FIG. 1B)) was “significant increase”, the “growth area of outgrowing axons” value (embryonic DRG explants; 0.01-1 μM, 22 hours in vitro, compared to vehicle-treated cultures (FIG. 1A)) was “significant increase” and the “concentration at which Schwann cell numbers were highest” value (embryonic DRG explants; [5]) was 0.1 µM. For the same compound, the “concentration at which elevation of axonal growth areas was highest” value (embryonic DRG explants; [5]) was 0.1 µM, the “BBB score at steady state” value ([3]; 10 mg in vehicle, vehicle animals 7.8 (FIG. 4)) was 9.0 and the “BBB score at the end of the experiment compared to vehicle controls” value ([3]; 10 mg, DPO 56, Students T-Test p=0.0012 (FIG. 5)) was “performed significantly better”.
